{"source": "patent US20240043407A1", "about": "“CRYSTALLINE FORM I OF MELANOCORTIN RECEPTOR AGONIST COMPOUND AND METHOD FOR PREPARING SAME” (LG CHEM, LTD., priority 2020, published 2024)", "format_in_all_cases": "physicochemical", "key": {"[1]": {"assay": "Stability assessment by HPLC after storage", "details": "for HPLC content, Accelerated condition (40° C./75% RH): open state; for HPLC content, Accelerated condition (40° C./75% RH) / HPLC content, Harsh condition (80° C.): in % (unit assumed); for HPLC content, Harsh condition (80° C.): sealed state, oven 80° C.", "protocol": "About 10-30 mg of the sample was stored for 4 weeks in an open state under the accelerated condition (40° C., 75% RH) or in a sealed state under the harsh condition in an oven at 80° C. [table]"}, "[2]": {"assay": "Thermogravimetric analysis (TGA)", "protocol": "The TGA was measured using Mettler Toledo TGA/DSC 1 module. About 4-8 mg of the sample is weighed and put into a 100 μL Al crucible (flat-bottomed aluminum crucibles). Then, TGA measurement is performed while the sample is heated from 30° C. to 350° C. at a rate of 10° C./min. During the measurement, nitrogen gas is supplied to the inside of the instrument at a rate of 80 mL/min to prevent the inflow of oxygen and other gases. Data collection and evaluation were performed using the software STARe."}, "[3]": {"assay": "Dynamic vapor sorption (DVS) analysis", "protocol": "DVS was measured using automated gravimetric vapor sorption analyzer equipped with Cahn D200 ultra-microbalance (DVS Intrinsic apparatus, Surface Measurement System Ltd., UK). First, a sample of 10-20 mg was put in a sample pan and hung on a hang-down wire, and measurement was started when the weight and humidity reached equilibrium. In one cycle, relative humidity was increased from 0% to 90% and then dropped back to 0%. Two cycles were carried out. The experiment was carried out in a way that the relative humidity was increased at 10% increment using a dm/dt method. The experiment was carried out at room temperature (25° C.)"}}, "data": [{"molecule": "CC(C)C(=O)N([C@H]1C[C@@H](C(=O)N2CCOCC2)N(C(=O)[C@@H]2CN(C(C)(C)C)C[C@H]2c2ccc(Cl)cc2)C1)[C@H]1CC[C@@H](C)CC1", "note": "[Example 1, N-((3S,5S)-1-((3S,4R)-1-(tert-butyl)-4-(4-chlorophenyl)pyrrolidine-3-carbonyl)-5-(morpholine-4-carbonyl)pyrrolidin-3-yl)-N-((1s,4R)-4-methylcyclohexyl)isobutyramide]", "values": [{"measurement": "chemical stability", "setting": "[1]; accelerated (40° C., 75% RH) and harsh (80° C.) condition, 4 weeks", "result": "showed chemical stability for 4 weeks"}, {"measurement": "decrease in the content until week 4", "setting": "[1]; accelerated condition (40° C., 75% RH) and closed state (harsh condition, 80° C.), until week 4", "result": "about 1.3%"}, {"measurement": "decrease in the content under the accelerated condition", "setting": "[1]; accelerated condition, for 4 weeks", "result": "less than 1%"}, {"measurement": "HPLC content, Initial", "setting": "[1]; initial, before storage", "result": 97.8, "unit": "%"}, {"measurement": "HPLC content, Accelerated condition (40° C./75% RH)", "setting": "[1]; Day 3", "result": 97.51}, {"measurement": "HPLC content, Accelerated condition (40° C./75% RH)", "setting": "[1]; Week 1", "result": 96.64}, {"measurement": "HPLC content, Accelerated condition (40° C./75% RH)", "setting": "[1]; Week 2", "result": 97.73}, {"measurement": "HPLC content, Accelerated condition (40° C./75% RH)", "setting": "[1]; Week 4", "result": 97.47}, {"measurement": "HPLC content, Harsh condition (80° C.)", "setting": "[1]; Day 3", "result": 97.46}, {"measurement": "HPLC content, Harsh condition (80° C.)", "setting": "[1]; Week 1", "result": 97.34}, {"measurement": "HPLC content, Harsh condition (80° C.)", "setting": "[1]; Week 2", "result": 96.94}, {"measurement": "HPLC content, Harsh condition (80° C.)", "setting": "[1]; Week 4", "result": 96.47}, {"measurement": "temperature up to which thermally stable", "setting": "[2]; TGA, error of ±5° C.", "result": "up to 270 °C"}, {"measurement": "weight loss in TGA before degradation", "setting": "[2]; heated from 30° C. to 350° C. at 10° C./min", "result": "no weight loss was observed before degradation"}, {"measurement": "total weight gain observed between 0-90% RH", "setting": "[3]; DVS, 25° C., 0-90% RH, two cycles", "result": 0.2, "unit": "% w/w"}, {"measurement": "physical change after DVS (XRPD pattern compared with initial compound)", "setting": "[3]; XRPD after DVS analysis", "result": "no physical change occurred"}]}]}
